Literature values, collected in patent publication US6384081B2, “Treatment of diseases of the eye characterized by the formation of metalloproteinase” (priority 1998, dated 2002).
Like-named read-outs stand apart in the source and are kept apart here.

What was measured:
[1] = target: collagenase purified from culture medium of alkali-burned rabbit corneas
[2] = rabbit eye, 7 mg/kg intravenously
[3] = tested on: epithelial healing in the rabbit alkali-burn model; conditions: for mean percentage of epithelial defects: at 14 days

## CCC[C@@H]1C[C@@H](C(=O)N[C@@H]([C@H]2O[C@H](SC)[C@H](O)[C@@H](O)[C@H]2O)[C@H](C)Cl)N(C)C1 [clindamycin]
sub-conjunctival, retrobulbar and intramuscular, one shot, healthy rabbit eye
  intraocular penetration: best results

## spiramycin
rabbit, in vivo
  intraocular penetration: best results

## CCCC(NC(CC(C)C)C(=O)NC(Cc1ccccc1)C(=O)NC(C)C(N)=O)C(=O)O (stereo not drawn) [CH3(CH2)2(DL)CH-(COOH)-Leu-Phe-Ala-NH2]
[1]; substrate not stated, read-out: IC50
  IC50: 25 µM

## CC(CN1CC(=O)NC(=O)C1)N1CC(=O)NC(=O)C1 (centres unmarked) [Razoxane]
collagenase
  collagenase production: inhibited collagenase production
TIMP
  TIMP production: stimulated TIMP production

## CC(=O)N[C@@H](CS)C(=O)O [N-acetylcysteine]
[1]; natural substrate (collagen), read-out: IC50
  IC50: < 10000 µM
[1]; synthetic substrate, read-out: IC50
  IC50: 2700 µM

## O=C1O[C@H]([C@@H](O)CO)C([O-])=C1O.[Na+] [Sodium ascorbate]
[1]; either collagen or the synthetic substrate
  inhibition of collagenase-mediated hydrolysis: did not inhibit

## O=C([O-])CC(O)(CC(=O)[O-])C(=O)[O-].[Na+].[Na+].[Na+] [sodium citrate]
[1]; excess Ca2+
  reversal of inhibition by excess Ca2+: could be reversed by excess Ca2+

## C[C@H]1c2cccc(O)c2C(=O)C2=C(O)[C@]3(O)C(=O)C(C(N)=O)=C(O)[C@@H](N(C)C)[C@@H]3[C@@H](O)[C@@H]21 [doxycycline]
[2]
  Doxycycline concentration in the cornea versus aqueous humor: exceeded that in the aqueous humor
  Vitreous body doxycycline concentration: 0.3 microgram/g
  penetrability into the tissues: good penetrability
[2]; long-lasting
  antibiotic concentration in all vascularized ocular structures: ≥ 1 microgram/g

## CC(C)CC(CS)C(=O)NC(Cc1ccccc1)C(=O)NC(C)C(N)=O (stereo not drawn) [HSCH2(DL)CH[CH2 CH(CH3)2]CO-Phe-Ala-NH2]
[1]; synthetic substrate Dnp-Pro-Leu-Gly-Leu-Trp-Ala-D-Arg-NH2, read-out: 50% inhibition (IC50)
  IC50: ~0.01 µM

## doxycycline hyclate
[3]; 1.5 mg/kg orally daily for 14 days
  mean percentage of epithelial defects: 50.7%
[3]; 5 mg/kg orally daily for 14 days
  mean percentage of epithelial defects: 7.1%
[3]; 5 mg/kg/day, systemically administered
  corneal reepithelialization: promotes corneal reepithelialization
